Data taken from patent publication US11168073B2, “3,3-difluoroallylamines or salts thereof and pharmaceutical compositions comprising the same” (YUHAN CORPORATION, priority 2018, dated 2021).
Counter-ions that a name gives are not always drawn. Like-named read-outs stand apart in the source and are kept apart here.

Experiments:
Assay type in all cases: biochemical
[1] = molecular target: T1, recombinant human DAO (diamine oxidase) (Homo sapiens, UniProt P19801); test: Activity evaluation on recombinant human DAO (Amplex Red/HRP-coupled assay, 1 mM putrescine substrate); details: read-out: Inhibitory Activity (IC50, nM) DAO
T1 construct: purchased R&D systems
T1 sequence (P19801 20-751): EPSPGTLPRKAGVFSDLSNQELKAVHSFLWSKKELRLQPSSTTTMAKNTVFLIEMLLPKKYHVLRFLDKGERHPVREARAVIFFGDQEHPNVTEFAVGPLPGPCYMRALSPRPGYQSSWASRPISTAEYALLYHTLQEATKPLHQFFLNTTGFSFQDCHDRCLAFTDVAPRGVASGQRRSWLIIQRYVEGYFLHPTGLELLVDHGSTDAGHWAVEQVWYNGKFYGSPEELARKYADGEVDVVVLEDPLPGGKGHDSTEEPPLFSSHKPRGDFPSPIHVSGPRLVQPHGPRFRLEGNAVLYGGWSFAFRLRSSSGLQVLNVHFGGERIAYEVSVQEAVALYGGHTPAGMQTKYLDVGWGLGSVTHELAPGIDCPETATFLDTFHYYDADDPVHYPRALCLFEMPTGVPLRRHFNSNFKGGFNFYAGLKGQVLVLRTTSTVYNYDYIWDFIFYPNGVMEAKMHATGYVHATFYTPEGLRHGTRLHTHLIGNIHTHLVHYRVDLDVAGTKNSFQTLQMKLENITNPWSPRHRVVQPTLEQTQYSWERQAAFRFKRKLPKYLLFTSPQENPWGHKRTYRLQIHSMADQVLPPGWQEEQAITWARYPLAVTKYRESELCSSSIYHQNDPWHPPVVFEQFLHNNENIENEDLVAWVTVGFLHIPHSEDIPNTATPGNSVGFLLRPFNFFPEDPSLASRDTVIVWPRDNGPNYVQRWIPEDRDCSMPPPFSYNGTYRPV
Summary of the method: (§1)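 Compounds preincubated 30 min at 37 °C with enzyme in 50 mM sodium phosphate pH 7.4 (final DMSO <1%, 8-point 1:3 dilutions); reaction started with 200 uM Amplex Red, 1 U/mL HRP and substrate (MAO-A 0.5 mM tyramine, MAO-B 1 mM benzylamine, DAO 1 mM putrescine). Resorufin fluorescence (ex 544/em 590 nm) followed over 1-2 h; IC50 from four-parameter logistic fit.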

[2] = molecular target: T2, recombinant human MAO-B (monoamine oxidase-B) (Homo sapiens, UniProt P27338); test: Activity evaluation on recombinant human MAO-B (Amplex Red/HRP-coupled assay, 1 mM benzylamine substrate); details: read-out: Inhibitory Activity (IC50, nM) MAO-B
T2 construct: purchased Sigma-Aldrich
T2 sequence (P27338 1-520): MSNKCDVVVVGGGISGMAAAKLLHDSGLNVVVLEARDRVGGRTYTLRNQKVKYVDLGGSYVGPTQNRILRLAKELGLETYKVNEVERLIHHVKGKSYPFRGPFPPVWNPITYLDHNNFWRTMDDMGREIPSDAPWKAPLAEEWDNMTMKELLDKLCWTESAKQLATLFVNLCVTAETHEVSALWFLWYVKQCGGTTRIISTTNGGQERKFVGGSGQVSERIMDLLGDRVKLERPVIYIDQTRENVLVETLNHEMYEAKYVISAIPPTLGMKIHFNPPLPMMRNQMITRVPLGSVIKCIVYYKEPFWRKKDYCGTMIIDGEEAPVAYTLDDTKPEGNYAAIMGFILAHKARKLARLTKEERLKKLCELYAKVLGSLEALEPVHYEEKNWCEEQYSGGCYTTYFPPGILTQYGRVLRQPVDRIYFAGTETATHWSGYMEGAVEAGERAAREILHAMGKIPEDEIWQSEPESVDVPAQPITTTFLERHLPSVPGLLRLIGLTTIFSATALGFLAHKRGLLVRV
Summary of the method: as §1

recombinant human VAP-1 = molecular target: T3, recombinant human VAP-1 (Homo sapiens, UniProt Q16853); test: Activity evaluation on recombinant human VAP-1 (Amplex Red/HRP-coupled hydrogen peroxide assay, benzylamine substrate); details: read-out: Inhibitory Activity (IC50, nM) human VAP-1
T3 construct: purchased R&D systems
T3 sequence (Q16853 1-763): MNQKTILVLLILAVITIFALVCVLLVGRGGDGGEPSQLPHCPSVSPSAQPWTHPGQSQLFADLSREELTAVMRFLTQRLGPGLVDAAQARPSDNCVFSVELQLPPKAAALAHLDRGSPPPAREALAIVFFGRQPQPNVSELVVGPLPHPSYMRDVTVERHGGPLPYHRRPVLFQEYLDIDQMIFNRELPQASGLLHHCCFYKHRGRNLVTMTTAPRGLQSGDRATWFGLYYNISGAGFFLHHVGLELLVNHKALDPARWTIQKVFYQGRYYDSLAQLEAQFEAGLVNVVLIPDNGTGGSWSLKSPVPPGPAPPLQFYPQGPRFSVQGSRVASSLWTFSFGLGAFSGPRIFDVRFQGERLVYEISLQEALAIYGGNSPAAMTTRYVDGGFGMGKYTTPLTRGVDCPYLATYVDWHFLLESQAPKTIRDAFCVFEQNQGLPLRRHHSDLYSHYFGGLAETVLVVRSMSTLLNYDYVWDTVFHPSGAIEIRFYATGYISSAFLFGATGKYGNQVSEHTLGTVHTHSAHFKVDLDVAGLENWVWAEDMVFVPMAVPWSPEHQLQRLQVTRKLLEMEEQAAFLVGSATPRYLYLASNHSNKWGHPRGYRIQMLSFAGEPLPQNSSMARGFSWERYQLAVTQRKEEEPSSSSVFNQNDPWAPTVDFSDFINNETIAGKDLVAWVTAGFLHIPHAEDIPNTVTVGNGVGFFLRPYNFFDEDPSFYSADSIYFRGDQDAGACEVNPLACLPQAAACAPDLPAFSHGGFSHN
Summary of the method: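 Recombinant human VAP-1 in 50 mM sodium phosphate pH 7.4 preincubated 30 min at 37 °C with compound (8-point 1:3 series, <1% DMSO), then 1 mM benzylamine, 200 uM Amplex Red, 1 U/mL HRP added. H2O2-derived resorufin fluorescence (ex 544/em 590) followed 1–2 h; IC50 from four-parameter fit of rate inhibition.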

[3] = molecular target: T4, recombinant human MAO-A (monoamine oxidase-A) (Homo sapiens, UniProt P21397); test: Activity evaluation on recombinant human MAO-A (Amplex Red/HRP-coupled assay, 0.5 mM tyramine substrate); details: read-out: Inhibitory Activity (IC50, nM) MAO-A
T4 construct: purchased Sigma-Aldrich
T4 sequence (P21397 1-527): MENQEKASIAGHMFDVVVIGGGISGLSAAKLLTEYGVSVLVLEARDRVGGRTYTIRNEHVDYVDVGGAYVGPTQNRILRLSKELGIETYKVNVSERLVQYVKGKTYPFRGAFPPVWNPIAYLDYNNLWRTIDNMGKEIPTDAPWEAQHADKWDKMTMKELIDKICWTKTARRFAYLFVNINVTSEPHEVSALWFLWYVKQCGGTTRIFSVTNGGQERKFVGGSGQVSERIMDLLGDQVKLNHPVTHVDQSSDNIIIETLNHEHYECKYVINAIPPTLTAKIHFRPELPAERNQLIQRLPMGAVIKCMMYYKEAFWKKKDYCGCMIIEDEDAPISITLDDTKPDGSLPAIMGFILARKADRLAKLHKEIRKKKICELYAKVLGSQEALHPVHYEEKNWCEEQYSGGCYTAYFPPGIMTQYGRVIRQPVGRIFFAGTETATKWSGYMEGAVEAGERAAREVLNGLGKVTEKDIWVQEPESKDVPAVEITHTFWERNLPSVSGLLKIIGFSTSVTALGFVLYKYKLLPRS
Summary of the method: as §1

[4] = recombinant human VAP-1, benzylamine substrate
[5] = recombinant human VAP-1, 30 min preincubation at 37° C., 1 mM benzylamine

Row | Compound | IC50 ([1]; 1 mM putrescine substrate) | IC50 ([2]; 1 mM benzylamine substrate) | IC50 (recombinant human VAP-1; [4]) | IC50 ([3]; 0.5 mM tyramine substrate) | IC50 ([1]; 1 mM putrescine) | IC50 ([2]; 1 mM benzylamine) | IC50 (recombinant human VAP-1; [5]) | IC50 ([3]; 0.5 mM tyramine)
1 | Cc1cc(-c2ccc3ocnc3c2)cnc1-n1cnn(CC(CN)=C(F)F)c1=O [Example 229, 2-[2-(aminomethyl)-3,3-difluoro-allyl]-4-[5-(1,3-benzoxazol-5-yl)-3-methyl-2-pyridyl]-1,2,4-triazol-3-one Trifluoroacetate] | 97000 nM | 4100 nM | 0.6 nM | > 10000 nM |  |  |  | 
2 | NCC(Cn1ncn(-c2ccc(Br)c(F)c2)c1=O)=C(F)F [Example 4, 2-[2-(aminomethyl)-3,3-difluoro-allyl]-4-(4-bromo-3-fluoro-phenyl)-1,2,4-triazol-3-one Trifluoroacetate] |  |  |  |  | 58000 nM | 2300 nM | 4.2 nM | > 100000 nM
3 | CN(C)c1ccc(-c2ccc(-n3cnn(CC(CN)=C(F)F)c3=O)cn2)cn1 [Example 41, 2-[2-(aminomethyl)-3,3-difluoro-allyl]-4-[6-[6-(dimethylamino)-3-pyridyl]-3-pyridyl]-1,2,4-triazol-3-one Trifluoroacetate] |  |  |  |  | 120 nM | 470 nM | 0.2 nM | > 100000 nM
4 | NCC(Cn1ncn(-c2ncc(Br)cc2F)c1=O)=C(F)F [Example 14, 2-[2-(aminomethyl)-3,3-difluoro-allyl]-4-(5-bromo-3-fluoro-2-pyridyl)-1,2,4-triazol-3-one Trifluoroacetate] |  |  |  |  | 4100 nM | 40000 nM | 1.4 nM | > 100000 nM
5 | NCC(Cn1ncn(-c2ccc(-c3ccc(C(F)(F)F)nc3)cc2F)c1=O)=C(F)F [Example 33, 2-[2-(aminomethyl)-3,3-difluoro-allyl]-4-[2-fluoro-4-[6-(trifluoromethyl)-3-pyridyl]phenyl]-1,2,4-triazol-3-one Trifluoroacetate] |  |  |  |  | 17 nM | 190 nM | 0.3 nM | 11000 nM
6 | CS(=O)(=O)c1ccc(-c2cccc(-n3cnn(CC(CN)=C(F)F)c3=O)n2)cc1 [Example 46, 2-[2-(aminomethyl)-3,3-difluoro-allyl]-4-[6-(4-methylsulfonylphenyl)-2-pyridyl]-1,2,4-triazol-3-one Trifluoroacetate] |  |  |  |  | 190 nM | > 100000 nM | 0.9 nM | > 100000 nM

Other lines, results leading:

Row | IC50 ([1]; 1 mM putrescine substrate) | IC50 ([2]; 1 mM benzylamine substrate) | IC50 (recombinant human VAP-1; [4]) | IC50 ([3]; 0.5 mM tyramine substrate) | IC50 ([1]; 1 mM putrescine) | IC50 ([2]; 1 mM benzylamine) | IC50 (recombinant human VAP-1; [5]) | IC50 ([3]; 0.5 mM tyramine) | Compound
7 | 25300 nM | > 100000 nM | 2.4 nM | > 100000 nM |  |  |  |  | CS(=O)(=O)n1cc(-c2ccc(Cn3cnn(CC(CN)=C(F)F)c3=O)s2)cn1 [Example 293, 2-[2-(aminomethyl)-3,3-difluoro-allyl]-4-[[5-(1-methylsulfonylpyrazol-4-yl)-2-thienyl]methyl]-1,2,4-triazol-3-one Trifluoroacetate]
8 |  |  |  |  | > 100000 nM | 760 nM | 0.5 nM | > 100000 nM | NCC(Cn1ncn(Cc2ccc(-c3ccc4c(c3)OCO4)s2)c1=O)=C(F)F [Example 126, 2-[2-(aminomethyl)-3,3-difluoro-allyl]-4-[[5-(1,3-benzodioxol-5-yl)-2-thienyl]methyl]-1,2,4-triazol-3-one Trifluoroacetate]
9 | 7670 nM | > 100000 nM | 0.8 nM | > 100000 nM |  |  |  |  | CS(=O)(=O)c1ccc(-c2ccc3sc(Cn4cnn(CC(CN)=C(F)F)c4=O)cc3c2)cc1 [Example 205, 2-[2-(aminomethyl)-3,3-difluoro-allyl]-4-[[5-(4-methylsulfonylphenyl)benzothiophen-2-yl]methyl]-1,2,4-triazol-3-one Trifluoroacetate]
10 |  |  |  |  | > 10000 nM | > 10000 nM | 0.9 nM | > 10000 nM | NCC(Cn1ncn(Cc2ccc(C#Cc3cnc4c(c3)NCCO4)s2)c1=O)=C(F)F [Example 166, 2-[2-(aminomethyl)-3,3-difluoro-allyl]-4-[[5-[2-(2,3-dihydro-1H-pyrido[2,3-b][1,4]oxazin-7-yl)ethynyl]-2-thienyl]methyl]-1,2,4-triazol-3-one Ditrifluoroacetate]
11 | 14000 nM | 15000 nM | 2.7 nM | > 100000 nM |  |  |  |  | Cc1cc(C#Cc2cnc3c(c2)OCCN3)cnc1-n1cnn(CC(CN)=C(F)F)c1=O [Example 245, 2-[2-(aminomethyl)-3,3-difluoro-allyl]-4-[5-[2-(3,4-dihydro-2H-pyrido[3,2-b][1,4]oxazin-7-yl)ethynyl]-3-methyl-2-pyridyl]-1,2,4-triazol-3-one ditrifluoroacetate]
12 | 9680 nM | > 100000 nM | 1.4 nM | > 100000 nM |  |  |  |  | CCn1cc(-c2cc(F)c(Cn3cnn(CC(CN)=C(F)F)c3=O)s2)ccc1=O [Example 299, 5-[5-[[1-[2-(aminomethyl)-3,3-difluoro-allyl]-5-oxo-1,2,4-triazol-4-yl]methyl]-4-fluoro-2-thienyl]-1-ethyl-pyridin-2-one Trifluoroacetate]
13 |  |  |  |  | 30 nM | 56400 nM | 0.9 nM | > 100000 nM | CN(C)c1ccc(-c2ccnc(-n3cnn(CC(CN)=C(F)F)c3=O)c2)cn1 [Example 57, 2-[2-(aminomethyl)-3,3-difluoro-allyl]-4-[4-[6-(dimethylamino)-3-pyridyl]-2-pyridyl]-1,2,4-triazol-3-one Trifluoroacetate]
